From ChEMBL document CHEMBL4840335, “Rational Design and Development of Novel CDK9 Inhibitors for the Treatment of Acute Myeloid Leukemia” (J Med Chem, 2021)
Each block holds one molecule with its values, some of them ahead of it. Activity calls are given as the source filed them. The rule behind the calls is not given here.

Key:
[1] = target: Cyclin-dependent kinase 7 (Homo sapiens, UniProt P50613); test: Inhibition of CDK7 (unknown origin)
CDK9/cyclin T1 = CDK9/cyclin T1 (Homo sapiens, UniProt P50750); test: Inhibition of CDK9/cyclin T1 (unknown origin) incubated for 2 hrs in presence of ATP by FRET based LANCE assay; format: protein-complex assay
[2] = target: Cyclin-dependent kinase 6 (Homo sapiens, UniProt Q00534); test: Inhibition of CDK6 (unknown origin)
[3] = target: Cyclin-dependent kinase 4 (Homo sapiens, UniProt P11802); test: Inhibition of CDK4 (unknown origin)
[4] = target: Cyclin-dependent kinase 2 (Homo sapiens, UniProt P24941); test: Inhibition of CDK2 (unknown origin)
[5] = target: CDK9/cyclin T1 (Homo sapiens) (UniProt O60563+P50750); test: Inhibition of CDK9/cyclin T1 (unknown origin) at 10 uM incubated for 2 hrs in presence of ATP by FRET based LANCE assay relative to control; format: protein-complex assay
MV4-11 [6] = test: Antiproliferative activity against human MV4-11 cells assessed as reduction in cell proliferation measured after 3 to 7 days by MTS assay; format: functional, cell-based
[7] = Antiproliferative activity against human MINO cells assessed as reduction in cell proliferation measured after 3 to 7 days by MTS assay; format: functional, cell-based
Z-138 = test: Antiproliferative activity against human Z138 cells assessed as reduction in cell proliferation measured after 3 to 7 days by MTS assay; format: functional, cell-based
HL-60 = test: Antiproliferative activity against human HL-60 cells assessed as reduction in cell proliferation measured after 3 to 7 days by MTS assay; format: functional, cell-based
TMD8 = test: Antiproliferative activity against human TMD8 cells assessed as reduction in cell proliferation measured after 3 to 7 days by MTS assay; format: functional, cell-based
MV4-11 [8] = test: Induction of apoptosis in human MV4-11 cells assessed as live cells at 10 nM measured after 24 hrs by annexinV-FITC/propidium iodide staining based flow cytometry (reference value: 95.14 %); format: functional
CCRF-CEM = test: Antiproliferative activity against human CCRF-CEM cells assessed as reduction in cell proliferation measured after 3 to 7 days by MTS assay; format: functional, cell-based
MV4-11 [9] = test: Induction of apoptosis in human MV4-11 cells assessed as necrotic cells at 10 nM measured after 24 hrs by annexinV-FITC/propidium iodide staining based flow cytometry (reference value: 1.03 %); format: functional
JeKo-1 = test: Antiproliferative activity against human JeKo-1 cells assessed as reduction in cell proliferation measured after 3 to 7 days by MTS assay; format: functional, cell-based
MV4-11 [10] = test: Induction of apoptosis in human MV4-11 cells assessed as late apoptotic cells at 50 nM measured after 24 hrs by annexinV-FITC/propidium iodide staining based flow cytometry (reference value: 3.04 %); format: functional
MV4-11 [11] = test: Induction of apoptosis in human MV4-11 cells assessed as necrotic cells at 50 nM measured after 24 hrs by annexinV-FITC/propidium iodide staining based flow cytometry (reference value: 1.03 %); format: functional
MM1.S = test: Antiproliferative activity against human MM1.S cells assessed as reduction in cell proliferation measured after 3 to 7 days by MTS assay; format: functional, cell-based
MV4-11 [12] = test: Induction of apoptosis in human MV4-11 cells assessed as late apoptotic cells at 10 nM measured after 24 hrs by annexinV-FITC/propidium iodide staining based flow cytometry (reference value: 3.04 %); format: functional
Raji = test: Antiproliferative activity against human Raji cells assessed as reduction in cell proliferation measured after 3 to 7 days by MTS assay; format: functional, cell-based
MV4-11 [13] = test: Induction of apoptosis in human MV4-11 cells assessed as activation of caspase-3 at 5 to 50 nM measured after 24 hrs by Western blot analysis; format: functional, cell-based; conditions: dose 5-50 nM
MV4-11 [14] = test: Induction of apoptosis in human MV4-11 cells assessed as live cells at 50 nM measured after 24 hrs by annexinV-FITC/propidium iodide staining based flow cytometry (reference value: 95.14 %); format: functional
Kasumi 1 = test: Antiproliferative activity against human Kasumi 1 cells assessed as reduction in cell proliferation measured after 3 to 7 days by MTS assay; format: functional, cell-based
MV4-11 [15] = test: Induction of apoptosis in human MV4-11 cells assessed as early apoptotic cells at 10 nM measured after 24 hrs by annexinV-FITC/propidium iodide staining based flow cytometry (reference value: 0.79 %); format: functional
RPMI-8226 = test: Antiproliferative activity against human RPMI-8226 cells assessed as reduction in cell proliferation measured after 3 to 7 days by MTS assay; format: functional, cell-based
MV4-11 [16] = test: Induction of apoptosis in human MV4-11 cells assessed as activation of cleaved PARP at 5 to 50 nM measured after 24 hrs by Western blot analysis; format: functional, cell-based; conditions: dose 5-50 nM
MV4-11 [17] = test: Induction of apoptosis in human MV4-11 cells assessed as early apoptotic cells at 50 nM measured after 24 hrs by annexinV-FITC/propidium iodide staining based flow cytometry (reference value: 0.79 %); format: functional
OCI-Ly10 = test: Antiproliferative activity against human OCILY10 cells assessed as reduction in cell proliferation measured after 3 to 7 days by MTS assay; format: functional, cell-based

Sequence of Cyclin-dependent kinase 4 (P11802 whole entry): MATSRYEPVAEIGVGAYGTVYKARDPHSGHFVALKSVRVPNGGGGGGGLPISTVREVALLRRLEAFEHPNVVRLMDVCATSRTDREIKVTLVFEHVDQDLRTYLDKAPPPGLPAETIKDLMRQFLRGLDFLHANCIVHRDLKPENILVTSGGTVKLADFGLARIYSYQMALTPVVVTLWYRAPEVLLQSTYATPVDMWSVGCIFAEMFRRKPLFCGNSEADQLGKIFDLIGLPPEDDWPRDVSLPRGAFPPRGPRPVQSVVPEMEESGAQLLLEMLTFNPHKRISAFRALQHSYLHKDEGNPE
Sequence of CDK9/cyclin T1 (O60563 whole entry): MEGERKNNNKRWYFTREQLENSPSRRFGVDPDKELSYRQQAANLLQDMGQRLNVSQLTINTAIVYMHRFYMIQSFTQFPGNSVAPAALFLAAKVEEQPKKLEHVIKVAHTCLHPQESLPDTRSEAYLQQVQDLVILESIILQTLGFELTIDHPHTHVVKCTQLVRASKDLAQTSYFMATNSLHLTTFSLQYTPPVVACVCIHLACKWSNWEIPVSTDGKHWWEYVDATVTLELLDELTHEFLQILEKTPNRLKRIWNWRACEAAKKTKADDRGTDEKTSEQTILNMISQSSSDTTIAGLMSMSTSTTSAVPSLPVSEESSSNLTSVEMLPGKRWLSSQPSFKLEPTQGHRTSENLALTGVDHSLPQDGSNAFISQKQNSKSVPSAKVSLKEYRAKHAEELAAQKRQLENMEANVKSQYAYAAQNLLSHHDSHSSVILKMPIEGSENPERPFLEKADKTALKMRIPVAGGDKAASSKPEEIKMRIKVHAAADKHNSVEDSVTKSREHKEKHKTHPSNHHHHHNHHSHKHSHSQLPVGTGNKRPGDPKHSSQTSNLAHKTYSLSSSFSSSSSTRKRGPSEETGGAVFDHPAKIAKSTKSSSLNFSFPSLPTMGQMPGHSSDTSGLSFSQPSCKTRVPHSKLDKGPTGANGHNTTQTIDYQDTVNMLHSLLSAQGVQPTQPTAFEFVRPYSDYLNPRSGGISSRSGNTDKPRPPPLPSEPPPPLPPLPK
Sequence of CDK9/cyclin T1 (P50750 whole entry): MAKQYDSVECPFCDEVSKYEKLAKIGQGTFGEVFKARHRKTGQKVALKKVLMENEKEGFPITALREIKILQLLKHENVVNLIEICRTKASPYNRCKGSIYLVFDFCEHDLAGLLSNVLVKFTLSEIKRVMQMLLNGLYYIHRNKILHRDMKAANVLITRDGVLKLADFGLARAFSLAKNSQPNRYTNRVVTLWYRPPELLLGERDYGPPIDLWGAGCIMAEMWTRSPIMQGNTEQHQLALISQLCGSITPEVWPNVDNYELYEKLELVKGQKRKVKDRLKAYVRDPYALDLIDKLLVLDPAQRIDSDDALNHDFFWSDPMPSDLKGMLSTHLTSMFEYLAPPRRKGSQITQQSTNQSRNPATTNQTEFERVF
Sequence of Cyclin-dependent kinase 7 (P50613 whole entry): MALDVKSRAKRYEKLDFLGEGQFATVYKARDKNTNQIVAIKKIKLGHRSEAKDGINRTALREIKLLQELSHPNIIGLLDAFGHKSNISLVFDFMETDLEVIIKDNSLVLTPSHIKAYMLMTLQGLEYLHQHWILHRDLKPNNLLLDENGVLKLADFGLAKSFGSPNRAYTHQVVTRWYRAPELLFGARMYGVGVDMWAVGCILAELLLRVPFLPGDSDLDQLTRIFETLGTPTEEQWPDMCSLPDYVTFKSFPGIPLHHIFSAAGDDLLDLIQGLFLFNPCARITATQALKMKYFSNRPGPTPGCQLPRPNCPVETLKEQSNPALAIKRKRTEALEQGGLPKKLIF
Sequence of Cyclin-dependent kinase 6 (Q00534 whole entry): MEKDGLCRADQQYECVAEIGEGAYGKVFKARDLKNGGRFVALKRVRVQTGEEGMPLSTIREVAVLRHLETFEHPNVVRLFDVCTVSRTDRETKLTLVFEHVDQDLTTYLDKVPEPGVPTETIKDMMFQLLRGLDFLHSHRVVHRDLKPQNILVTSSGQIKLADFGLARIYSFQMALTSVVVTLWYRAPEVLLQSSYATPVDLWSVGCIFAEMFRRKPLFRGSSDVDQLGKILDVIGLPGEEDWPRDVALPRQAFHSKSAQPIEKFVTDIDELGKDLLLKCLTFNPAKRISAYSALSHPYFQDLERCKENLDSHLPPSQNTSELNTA

Compound: COc1cc(F)ccc1-c1cncc(NC(CO)c2ccccc2)n1 (centres undefined)
- inhibition [5]: 12.4%

Compound: Cc1n[nH]c2ccc(-c3cncc(N[C@H](CO)c4ccccc4)n3)cc12
- IC50 (CDK9/cyclin T1): 8770 nM

Compound: OCC(Nc1cncc(-c2ccc3occc3c2)n1)c1ccccc1 (centres undefined)
- IC50 (CDK9/cyclin T1): 8920 nM

Compound: Cc1n[nH]c2ccc(-c3cncc(NC4CCCC(O)C4)n3)cc12 (centres undefined)
- IC50 [1]: 322 nM
- IC50 (CDK9/cyclin T1): 643 nM
- IC50 [2]: > 1000 nM
- IC50 [3]: > 1000 nM
- IC50 [4]: 52.9 nM

Compound: Cc1n[nH]c2ccc(-c3cncc(N[C@H](C)c4ccc(F)cc4)n3)cc12
- IC50 (CDK9/cyclin T1): 6800 nM

Compound: COc1ccc([C@H](CO)Nc2cncc(-c3ccc4[nH]nc(C)c4c3)n2)cc1
- IC50 (CDK9/cyclin T1): 774 nM

Compound: OCC(Nc1cncc(-c2ccc3nccnc3c2)n1)c1ccccc1 (centres undefined)
- inhibition [5]: 2.63%

Compound: Cc1n[nH]c2ccc(-c3cncc(N[C@H](C)c4ccccc4)n3)cc12
- IC50 (CDK9/cyclin T1): 883 nM

Compound: Cc1cccc(C(CO)Nc2cncc(-c3ccc4[nH]nc(C)c4c3)n2)c1 (racemic)
- IC50 (CDK9/cyclin T1): 153 nM

Compound: O=c1[nH]c2ccc(-c3cncc(NC(CO)c4ccccc4)n3)cc2[nH]1 (centres undefined)
- inhibition [5]: 0.61%

Compound: O=C1Cc2cc(-c3cncc(NC(CO)c4ccccc4)n3)ccc2N1 (centres undefined)
- inhibition [5]: 31.4%

Compound: Cc1n[nH]c2ccc(-c3cncc(NC(CO)c4cccc(OC(F)(F)F)c4)n3)cc12 (racemic)
- IC50 (CDK9/cyclin T1): 633 nM

Compound: Cc1nc2c(F)cc(-c3cncc(NC(CO)c4ccccc4)n3)cc2n1C(C)C (centres undefined)
- inhibition [5]: 13.8%

Compound: Cc1n[nH]c2ccc(-c3cncc(NC(CO)c4cccc(C(F)(F)F)c4)n3)cc12 (racemic)
- IC50 (CDK9/cyclin T1): 341 nM

Compound: Cc1n[nH]c2ccc(-c3cncc(NC(C)CO)n3)cc12 (centres undefined)
- IC50 (CDK9/cyclin T1): 995 nM

Second part, led by results:

- IC50 [1]: > 1000 nM
- IC50 (CDK9/cyclin T1): 20.4 nM
- IC50 [2]: > 1000 nM
- IC50 [3]: > 1000 nM
- IC50 [4]: 56.1 nM
Compound: Cc1n[nH]c2ccc(-c3cncc(N[C@@H](CO)c4ccc(F)cc4)n3)cc12

- IC50 (CDK9/cyclin T1): 24.7 nM
Compound: Cc1n[nH]c2ccc(-c3cncc(N[C@@H](CO)c4ccc(F)c(F)c4)n3)cc12

- IC50 [1]: > 1000 nM
- IC50 (CDK9/cyclin T1): 20.7 nM
- IC50 [2]: > 1000 nM
- IC50 [3]: > 1000 nM
- IC50 [4]: > 1000 nM
Compound: Cc1n[nH]c2ncc(-c3cc(N[C@@H](CO)c4ccccc4)cnc3Cl)cc12

- IC50 (CDK9/cyclin T1): 24.2 nM
Compound: Cc1n[nH]c2ccc(-c3cncc(NC(CO)c4ccccc4F)n3)cc12 (racemic)

- IC50 (MV4-11 [6]): 5.4 nM
- IC50 [1]: > 1000 nM
- IC50 (CDK9/cyclin T1): 4.96 nM
- IC50 (HL-60): 5.7 nM
- IC50 [2]: > 1000 nM
- IC50 (CCRF-CEM): 3.3 nM
- IC50 [3]: > 1000 nM
- IC50 (MM1.S): 6.3 nM
- IC50 (Raji): 11 nM
- IC50 [4]: > 1000 nM
- IC50 (RPMI-8226): 14 nM
- IC50 (OCI-Ly10): 2.1 nM
Compound: COC[C@H](C)N[C@H]1CC[C@H](Nc2cc(-c3cccc(NCC4(C#N)CCOCC4)n3)c(Cl)cn2)CC1
- IC50 [7]: 5.2 nM
- IC50 (Z-138): 3.7 nM
- IC50 (TMD8): 15 nM
- Activity (MV4-11 [8]): 77.97%
- Activity (MV4-11 [9]): 3.23%
- IC50 (JeKo-1): 10 nM
- Activity (MV4-11 [10]): 77.18%
- Activity (MV4-11 [11]): 16.67%
- Activity (MV4-11 [12]): 15.48%
- Activity (MV4-11 [13]): Active
- Activity (MV4-11 [14]): 4.36%
- IC50 (Kasumi 1): 6.8 nM
- Activity (MV4-11 [15]): 3.33%
- Activity (MV4-11 [16]): Active
- Activity (MV4-11 [17]): 1.8%

- IC50 (CDK9/cyclin T1): 27.3 nM
Compound: Cc1n[nH]c2ccc(-c3cncc(NC(CO)c4ccc(F)c(F)c4)n3)cc12 (racemic)

- IC50 (CDK9/cyclin T1): 42.3 nM
Compound: OC[C@H](Nc1cncc(-c2ccc3[nH]ncc3c2)n1)c1ccccc1

- IC50 [1]: > 1000 nM
- IC50 (CDK9/cyclin T1): 6.04 nM
- IC50 [2]: > 1000 nM
- IC50 [3]: > 1000 nM
- IC50 [4]: 67.4 nM
Compound: Cc1n[nH]c2ccc(-c3cncc(N[C@@H](CO)c4ccccc4)n3)cc12

- IC50 (CDK9/cyclin T1): 6.57 nM
Compound: Cc1n[nH]c2ncc(-c3cncc(N[C@@H](CO)c4ccccc4)n3)cc12

- IC50 [1]: > 1000 nM
- IC50 (CDK9/cyclin T1): 14.2 nM
- IC50 [2]: > 1000 nM
- IC50 [3]: > 1000 nM
- IC50 [4]: 147 nM
Compound: Cc1n[nH]c2ccc(-c3cncc(NC(CO)c4ccccc4)n3)cc12 (racemic)

- IC50 [1]: 496 nM
- IC50 (CDK9/cyclin T1): 9.15 nM
- IC50 [2]: > 1000 nM
- IC50 [3]: > 1000 nM
- IC50 [4]: 34.5 nM
Compound: Cc1n[nH]c2ccc(-c3cncc(N[C@@H](CO)c4cccc(F)c4)n3)cc12

- IC50 (CDK9/cyclin T1): 50.3 nM
Compound: Cc1n[nH]c2ccc(-c3cncc(NC(CO)c4ccc(F)cc4)n3)cc12 (racemic)

- IC50 (CDK9/cyclin T1): 75.6 nM
Compound: Cc1n[nH]c2ccc(-c3cncc(N[C@@H](CO)c4ccc(Cl)cc4)n3)cc12

- IC50 (CDK9/cyclin T1): 26.5 nM
Compound: Cc1n[nH]c2ccc(-c3cc(N[C@@H](CO)c4ccc(F)cc4)cnc3Cl)cc12
